{"source": "patent US20250177366A1", "about": "“COMPOSITIONS AND METHODS FOR ALLEVIATING PAIN AND REDUCING ADVERSIVENESS OF STIMULI” (UNIVERSITY OF WASHINGTON, priority 2021, published 2025)", "key": {"larval zebrafish [1]": {"tested_on": "larval zebrafish", "experiment": "AITC aversion assay (chemical attraction/aversion, AITC-infused agarose)", "type": "in vivo, Zebrafish (Danio rerio)", "settings": "AITC 100 mM in agarose", "text": "Whether the effects of AS1 extended beyond noxious temperature sensation or could also impact other somatosensory modalities was next explored. To accomplish this, a chemical attraction/aversion assay where a thin layer of agarose was deposited along the edges of a square arena (Jordi et al., Sci. Adv. 2018; 4:1-15) were adapted. Along one wall, the agarose contained the chemical to be tested, while the other three walls were lined with control agarose. It was anticipated that a chemical gradient would be established as chemical diffused from the agarose into the surrounding water. Larvae were pre-incubated in either vehicle or AS1 and then added to the arena and the distance of each larva from the chemical-infused agarose was measured. In control experiments where all four walls of the arena were lined with agarose only, AS1 and vehicle-treated larvae were dispersed evenly throughout the arena (FIG. 3). […] When the nociceptive chemical AITC (100 mM, 10,000× maximal effective dose) was tested, vehicle-treated larvae swam away from the AITC source.\n(§1) Chemical attraction/aversion assays. The agarose attraction/aversion assay was adapted from previously described experiments (Jordi et al., Sci. Adv. 2018; 4:1-15). For the AITC aversion assay, AITC and DMSO were added to molten 0.8% agarose to achieve a final concentration of 100 mM AITC and 2% DMSO. For the AS1 attraction/aversion assay, AS1 and DMSO were added to 0.8% molten agar to achieve final concentrations of 50 mM and 2%, respectively. To construct the test chambers, the lids of 10×10 cm square petri dishes (insert cat #and company) were lined on four sides with either the test (chemical-containing) or plain agarose (300 μL per side) and allowed to solidify. For all experiments, 30-40 randomly selected 6 dpf zebrafish were caught with a 10 mL pipette pump (Bel-Air Products, cat #: 13683C) equipped with a glass wide-bored Pasteur pipet (Fisher Scientific, cat #: 22-037-540) and deposited into a standard 10 cm diameter petri dish (Fisher Scientific, cat #: 07-202-031). As much E2 media as possible was carefully removed using the same pipette. For single incubation experiments, 30 mL of 1× solutions of the control or test chemical was added to each petri dish, and fish were incubated for 10 minutes at 28.5° C. For double incubation experiments, 15 mL of 1× solutions containing control (DMSO) or test chemicals was added to the larvae-containing petri dish. Following a ten minute incubation, 15 mL of the second incubation solution (1× control or test chemical +/−2× AS1) was added to the petri dish, and the fish were incubated for a second ten minute block. The final concentration of DMSO in all solutions was 1%. In all double-incubation experiments, the final concentration of AS1 was 5 μM unless otherwise noted. After completion of the last incubation period, the contents of each petri dish were poured into separate agarose-lined square dishes. Swimming behavior was immediately recorded for 20 minutes using the same high-definition camcorder in the thermal preference assays."}, "[2]": {"tested_on": "T1, 5-HT2a serotonin receptor (Homo sapiens)", "T1 construct": "Psychoactive Drug Screening Program (PDSP)", "T1 sequence (P41595 whole entry)": "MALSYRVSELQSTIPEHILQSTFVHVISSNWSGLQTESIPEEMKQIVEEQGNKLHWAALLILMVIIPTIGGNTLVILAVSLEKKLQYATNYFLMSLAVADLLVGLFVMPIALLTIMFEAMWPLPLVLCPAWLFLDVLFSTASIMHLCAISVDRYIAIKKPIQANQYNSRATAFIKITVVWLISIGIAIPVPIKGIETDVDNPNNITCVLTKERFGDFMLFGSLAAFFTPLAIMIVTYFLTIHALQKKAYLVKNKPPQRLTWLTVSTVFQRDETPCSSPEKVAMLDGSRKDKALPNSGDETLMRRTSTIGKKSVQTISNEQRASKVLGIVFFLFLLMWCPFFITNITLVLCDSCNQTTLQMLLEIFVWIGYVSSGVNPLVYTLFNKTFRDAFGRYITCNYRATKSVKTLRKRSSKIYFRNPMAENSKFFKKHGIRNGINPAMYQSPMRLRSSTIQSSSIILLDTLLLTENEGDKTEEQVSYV", "experiment": "PDSP radioligand binding assay", "settings": "PDSP screen", "description": "(§2) To further seek out the molecular target(s) of AS1, the resources of the Psychoactive Drug Screening Program (PDSP) (Besnard et al., Nature. 2012; 492:215-220) were utilized. […] While not being limited to mechanism or theory, to verify whether these receptors were involved in mediating the effects of AS1, the thermal preference assay following incubation in drugs that specifically acted upon these receptors was employed. […] Nor did treatment with the 5-HT2 s antagonist LY266097 replicate or reverse the effects of AS1 (FIG. 6). Incubation in either the specific sigma-1 receptor agonist (PRE-084) or antagonist (BD1063) similarly yielded no effects (FIG. 6)."}, "sigma-1 receptor": {"biological_target": "T2, sigma-1 receptor (Homo sapiens, UniProt Q99720)", "T2 construct": "Psychoactive Drug Screening Program (PDSP)", "T2 sequence (Q99720 whole entry, species assumed)": "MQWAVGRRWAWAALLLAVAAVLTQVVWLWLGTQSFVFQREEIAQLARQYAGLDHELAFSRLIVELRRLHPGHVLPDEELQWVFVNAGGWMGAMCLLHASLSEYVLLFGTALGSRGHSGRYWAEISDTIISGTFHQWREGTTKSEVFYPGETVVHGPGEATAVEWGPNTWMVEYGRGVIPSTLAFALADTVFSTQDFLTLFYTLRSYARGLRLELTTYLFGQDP", "experiment": "PDSP radioligand binding assay", "settings": "PDSP screen", "description": "as §2"}, "larval zebrafish [3]": {"tested_on": "larval zebrafish", "experiment": "Chemical attraction/aversion assay with the test chemical itself as source (inherent attractiveness)", "type": "in vivo, Zebrafish (Danio rerio)", "text": "To confirm that AS1 itself was not attractive, the chemical attraction/aversion assay was used. […] Since the assay was modified to accommodate the inability to dissolve SKF into agarose at high concentrations (see Materials and Methods), the inherent attractiveness of AS1 was re-tested using this new format.\nas §1, with “Following a ten minute incubation, 15 mL of the second incubation solution (1× control or test chemical +/−2× AS1) was added to the petri dish, and the fish were incubated for a second ten minute block. The final concentration of DMSO in all solutions was 1%. In all double-incubation experiments, the final concentration of AS1 was 5 μM unless otherwise noted. After completion of the last incubation period, the contents of each petri dish were poured into separate agarose-lined square dishes.” left out\nFor the SKF attraction/aversion assay, custom 10 cm×10 cm plates using clear resin (Formlabs, cat #: RS-F2-GPCL-04) and a Form 3+3D printer (Formlabs, cat #: PKG-F3-WSVC-BASIC) were designed. […] Swimming behavior was then recorded for 20 minutes. […]"}}, "data": [{"smiles": "CC(C)c1ccc(C(=O)Nc2ccncc2)cc1", "note": "[AS1, 4-propan-2-yl-N-pyridin-4-ylbenzamide]", "values": [{"measurement": "attraction/aversion to AITC source", "setting": "larval zebrafish [1]; 1 μM AS1", "value": "unable to induce attraction to AITC"}, {"measurement": "attraction/aversion to AITC source", "setting": "larval zebrafish [1]; 2.5 μM AS1", "value": "largely replicated the effects of 5 μM AS1"}, {"measurement": "attraction/aversion to AITC source", "setting": "larval zebrafish [1]; 5 μM AS1", "value": "strongly preferred to be near the AITC source"}, {"measurement": "radioligand binding interaction", "setting": "[2]", "value": "potentially weak interactions"}, {"measurement": "radioligand binding interaction", "setting": "sigma-1 receptor", "value": "potentially weak interactions"}, {"measurement": "inherent attractiveness of chemical infused into agarose", "setting": "larval zebrafish [3]; 50 mM AS1 in agarose on one side of square arena vs control agarose", "value": "did not approach it in a way that was appreciably different from control agarose"}, {"measurement": "inherent attractiveness of chemical deposited into trough", "setting": "larval zebrafish [3]; 2 mL in trough of 3D-printed arena, SKF 25 μM, AS1 10 μM-1 mM", "value": "neutral or mildly aversive"}]}]}
